For orientation: IC50 means the point on the concentration scale where inhibition reaches its midpoint. As usually defined, the Ki is the dissociation constant of the complex between target and ligand, obtained from inhibition or displacement. A low value points to tighter binding.

Here are results for nine molecules from ChEMBL document CHEMBL4342432, “Hydroxyl substituted benzoic acid/cinnamic acid derivatives: Tyrosinase inhibitory kinetics, anti-melanogenic activity and molecular docking studies” (Bioorg Med Chem Lett, 2020).

Calls of active or inactive are those of the source. No cut-off for these calls is given here.

Series [1] has as its target T1, Tyrosinase (Agaricus bisporus, UniProt O42713).
T1 sequence (O42713 whole entry): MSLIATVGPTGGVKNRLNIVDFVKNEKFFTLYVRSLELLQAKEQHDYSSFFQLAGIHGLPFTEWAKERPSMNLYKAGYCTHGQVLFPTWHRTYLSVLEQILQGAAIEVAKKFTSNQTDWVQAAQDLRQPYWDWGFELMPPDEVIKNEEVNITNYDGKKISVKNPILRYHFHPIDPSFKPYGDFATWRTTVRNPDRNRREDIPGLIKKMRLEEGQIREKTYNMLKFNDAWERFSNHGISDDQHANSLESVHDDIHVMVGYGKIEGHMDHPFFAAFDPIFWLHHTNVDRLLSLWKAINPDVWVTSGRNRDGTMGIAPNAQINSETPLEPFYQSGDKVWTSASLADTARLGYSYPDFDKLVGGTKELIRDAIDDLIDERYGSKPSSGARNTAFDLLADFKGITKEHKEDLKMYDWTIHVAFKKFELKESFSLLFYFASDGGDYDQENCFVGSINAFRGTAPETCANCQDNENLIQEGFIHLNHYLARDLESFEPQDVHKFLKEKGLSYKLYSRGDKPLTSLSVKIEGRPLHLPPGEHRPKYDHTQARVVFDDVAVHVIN
In words: Inhibition of mushroom tyrosinase assessed as reduction in dopachrome formation using L-DOPA as substrate preincubated for 10 mins followed by substrate addition and further incubated for 20 mins by microplate reader assay.

The test system of series [2] is B16-F10. Briefly: Cytotoxicity against mouse B16F10 cells assessed as effect on cell morphology at 20 to 60 ug/ml incubated for 24 hrs by fluorescent inverted microscopy analysis. The series is classed as cell-based. Conditions: b16-f10, 24 h.
In series [3] the target is T1, Tyrosinase.
Series [4] deals with T2, Tyrosinase (Mus musculus) (UniProt P11344).
T2 sequence (whole entry): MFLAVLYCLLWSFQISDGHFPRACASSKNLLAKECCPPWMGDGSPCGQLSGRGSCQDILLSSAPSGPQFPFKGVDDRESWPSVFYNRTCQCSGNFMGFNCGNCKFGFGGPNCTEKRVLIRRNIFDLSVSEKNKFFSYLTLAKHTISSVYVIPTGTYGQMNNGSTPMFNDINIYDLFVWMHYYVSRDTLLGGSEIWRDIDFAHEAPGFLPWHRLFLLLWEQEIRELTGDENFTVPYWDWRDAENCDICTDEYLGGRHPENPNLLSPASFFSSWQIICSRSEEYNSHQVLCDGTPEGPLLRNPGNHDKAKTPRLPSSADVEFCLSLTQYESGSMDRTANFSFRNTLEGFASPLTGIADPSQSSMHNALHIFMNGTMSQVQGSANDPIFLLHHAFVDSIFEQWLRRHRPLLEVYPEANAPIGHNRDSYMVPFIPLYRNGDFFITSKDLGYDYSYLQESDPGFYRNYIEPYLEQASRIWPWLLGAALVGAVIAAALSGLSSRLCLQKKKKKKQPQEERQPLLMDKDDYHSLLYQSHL
Briefly: Inhibition of tyrosinase in mouse B16F10 cells assessed as alpha-MSH-stimulated melanogenesis measured as melanin content at 25 to 30 ug/ml measured after 24 hrs in presence of alpha-MSH by microplate reader analysis. The format is cell-based.

The target in series [5] is T2, Tyrosinase (Mus musculus). Briefly: Inhibition of tyrosinase in mouse B16F10 cells assessed as transformation of L-DOPA into dopachrome measured after 24 hrs by microplate reader analysis. The format is cell-based.
Series [6] can be described thus: Cytotoxicity against mouse B16F10 cells assessed as cell viability at 40 ug/ml incubated for 24 hrs by MTT assay relative to control. The series is classed as cell-based, B16-F10. The conditions noted are these: read-out: Activity. (In general: Formazan colour is commonly taken as a measure of viable cells.)
Series [7] can be described thus: Cytotoxicity against mouse B16F10 cells assessed as cell viability at 30 ug/ml incubated for 24 hrs by MTT assay relative to control. The format is cell-based, B16-F10. The conditions noted are these: read-out: Activity.

Regarding `COc1cccc(OC(=O)COC(=O)/C=C/c2ccccc2)c1`, the IC50 in series [1] came to 39.4 µM.
As to `COc1cccc(OC(=O)COC(=O)c2cc(O)cc(O)c2)c1`, the IC50 in series [1] was found to be 193 µM.
The same measure, in the same setting: the same measure for `COc1cccc(OC(=O)COC(=O)c2cccc(O)c2)c1`: 315 µM.
`COc1cccc(OC(=O)COC(=O)/C=C/c2ccc(O)cc2)c1`: in series [2], the Activity entry is on record as “Non-Toxic”. Besides, in series [3], affinity was put at a Ki of 11 µM. Further, the inhibition result in series [4] was “Active”. Moreover, the inhibition entry in series [5] was “Dose-dependent effect”. Also, in series [6], the viability at 24 h, 40 ug/ml is above 95%. In addition, the IC50 in series [1] came to 5.7 µM. In addition, the viability at 24 h, 30 ug/ml in series [7] is above 99%.
For the molecule `COc1cccc(OC(=O)COC(=O)/C=C/c2ccccc2O)c1`, the IC50 in series [1] is 173 µM.
`COc1cccc(OC(=O)COC(=O)c2ccc(O)cc2O)c1`: the Ki in series [3] was 130 µM. Moreover, in series [1], the IC50 was 23.8 µM.
For the molecule `COc1cccc(OC(=O)COC(=O)c2ccc(O)c(O)c2)c1`, the IC50 in series [1] came out at 299 µM.
Still for that read-out and setting: under `COc1cccc(OC(=O)COC(=O)c2ccc(O)cc2)c1` stands 338 µM.
Same read-out and setting: under `O=C(/C=C/c1ccc(O)cc1)OCC(=O)Oc1ccc2ccc(=O)oc2c1` stands 124 µM.
